From patent US20240009277A1, “POLYPEPTIDES FOR USE IN THE TREATMENT AND PREVENTION OF NEURODEGENERATIVE DISEASES” (IMMUNE SYSTEM KEY LTD., priority 2020, published 2024)
Non-standard residues stand in square brackets, D forms with d. Residues, ends and D or L forms follow the SMILES beside them. No end group written: not given here.

Experiment: Blood Brain Barrier (BBB) penetration assay, ELISA of spinal fluid after I.P. injection
Type: in vivo, mice
Details: for level of the polypeptide in mice brain following injection: I.P. 60 mg/kg in 5% mannitol, spinal fluid collected after 1 hour, ELISA, compared to 5% mannitol control
Description: ICR female mice having initial body weight of 20-22 grams were used (Envigo).
A control group of 6 mice was injected intraperitoneally (I.P.) with 5% mannitol solution and another group of 6 mice was injected I.P. with the polypeptide dTCApFs (also termed herein Nerofe, at 60 mg/kg) in a 5% mannitol solution. Spinal fluid was collected after the injection (1 hour) and subjected to ELISA analysis of dTCApFs (Nerofe), as detailed below.
Mice were injected with 60 mg/kg D-amino acid dTCApFs (Nerofe), and cerebrospinal fluid (about 10 μl) and serum were collected after 1 hr, and frozen. A calibration curve was prepared by serial dilutions of the polypeptide in PBS (Biological industries, 02-023-5A) as noted in table 1 below.
Next, the cerebrospinal samples were thawed and kept on ice, and then diluted in 220 μl PBS. Sample loading was next performed by loading 100 μl duplicates of each sample and of the standard in a Maxisorp 96-wells plate (NUNC, F96 Maxisorp, 442404). The plate was sealed and incubated at 4° C. overnight with gentle shaking. The plate was washed by removing the liquid and washing the plate four (4) times using a multi-pipette or an automated washer with 300 μl 0.05% TW-20 (Amresco, 0777-1L) in PBS. The samples were blocked by diluting 5% BSA (MP biomedicals, 160069) in PBS. Then, 300 μl of the blocking buffer were loaded in each well and the plate was incubated at room temperature (R.T.) for 1 hour with gentle shaking. The Plates were washed again, as described above.
Detection was performed by diluting the first antibody according to table 1 below in diluent (0.05% TW-20, 0.1% BSA in PBS). Then, 100 μl of detection antibody were loaded into each well and the plate was incubated at R.T. for 2:00 hours with gentle shaking. The plate was washed again as detailed above. […]
Development was performed by adding 100 μl TMB (Milipore, ES001-500ML) to each well, and waiting for blue color development, then adding 100 μl 2N H2SO4 (Frutarom, 5552540). Plate reading was performed in a microplate reader, by checking the wells absorbance at 450 nm. […]

Compound	level of the polypeptide in mice brain following injection	penetration ability of the BBB (mice, I.P. 60 mg/kg)
CC(C)C[C@@H](NC(=O)[C@H](NC(=O)[C@@H](CO)NC(=O)[C@H]1CCCN1C(=O)[C@@H](CC(C)C)NC(=O)[C@@H](Cc1ccccc1)NC(=O)[C@@H](Cc1ccccc1)NC(=O)[C@H](NC(=O)[C@@H](Cc1c[nH]c2ccccc12)NC(=O)[C@H](N)Cc1c[nH]c2ccccc12)[C@H](C)O)[C@H](C)O)C(=O)N[C@H](Cc1c[nH]c2ccccc12)C(=O)N[C@H](CCC(=O)O)C(=O)N[C@H](CCCNC(=N)N)C(=O)N[C@H](CCCCN)C(=O)O [dTCApFs, Trp Trp Thr Phe Phe Leu Pro Ser Thr Leu Trp Glu Arg Lys] (H-[dW][dW][dT][dF][dF][dL][dP][dS][dT][dL][dW][dE][dR][dK]-OH; N-terminus and C-terminus assumed)	dramatically increased	good penetration ability of the BBB
WWTFFLPSTLWERK [L-amino acid polypeptide, Trp Trp Thr Phe Phe Leu Pro Ser Thr Leu Trp Glu Arg Lys, reference compound]	changed insignificantly	
